IC50 data for 27 molecules are collected here from patent US10323022B2, “Pyrrolidinyl urea, pyrrolidinyl thiourea and pyrrolidinyl guanidine compounds as TrkA kinase inhibitors” (Array BioPharma Inc., priority 2011, dated 2019).

One may read the IC50 as the concentration at which inhibition is half-maximal. Read a low IC50 as higher potency.

Sequence of TrkA (P04629 33-796): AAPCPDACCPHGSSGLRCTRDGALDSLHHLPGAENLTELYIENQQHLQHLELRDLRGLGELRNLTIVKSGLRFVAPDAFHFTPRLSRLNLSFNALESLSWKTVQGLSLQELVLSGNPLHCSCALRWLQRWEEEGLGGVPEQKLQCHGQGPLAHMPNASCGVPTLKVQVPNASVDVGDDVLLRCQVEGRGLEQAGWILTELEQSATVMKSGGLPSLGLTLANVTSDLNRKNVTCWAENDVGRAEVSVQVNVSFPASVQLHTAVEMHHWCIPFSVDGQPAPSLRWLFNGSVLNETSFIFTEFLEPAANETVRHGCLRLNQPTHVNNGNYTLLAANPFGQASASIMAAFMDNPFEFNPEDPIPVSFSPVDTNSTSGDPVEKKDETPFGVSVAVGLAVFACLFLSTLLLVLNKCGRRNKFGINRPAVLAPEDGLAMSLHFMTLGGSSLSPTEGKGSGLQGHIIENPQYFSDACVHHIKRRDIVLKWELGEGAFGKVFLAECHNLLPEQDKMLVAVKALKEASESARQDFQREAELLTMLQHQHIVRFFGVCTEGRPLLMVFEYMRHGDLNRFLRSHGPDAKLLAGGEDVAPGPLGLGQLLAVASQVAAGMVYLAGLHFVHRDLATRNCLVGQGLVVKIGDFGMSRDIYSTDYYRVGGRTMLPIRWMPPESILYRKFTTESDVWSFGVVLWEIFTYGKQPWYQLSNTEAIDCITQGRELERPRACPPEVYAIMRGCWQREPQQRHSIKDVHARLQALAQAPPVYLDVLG

The target of this assay is TrkA (Homo sapiens (Human), UniProt P04629). The assay can be described thus: TrkA Omnia Assay. Format: biochemical. Conditions: averaged IC50; 20 nM enzyme, 500 μM ATP, 10 μM peptide substrate. As for the experimental part:
Trk enzymatic selectivity was assessed using Omnia™ Kinase Assay reagents from Invitrogen Corp. Enzyme (TrkA from Invitrogen Corp.) and test compound (various concentrations) were incubated for 10 minutes at ambient temperature in a 384-well white polypropylene plate (Nunc catalog#267462). Omnia Tyr Peptide #4, as well as ATP, were then added to the plate. Final concentrations were as follows: 20 nM enzyme, 500 μM of ATP, 10 μM peptide substrate. The assay buffer consisted of 25 mM MOPS pH 7.5, 0.005% (v/v) Triton X-100 and 5 mM MgCl2. The production of phosphorylated peptide was monitored continuously for 70 minutes using a Molecular Devices FlexStation II^384 microplate reader (excitation=360 nm; emission=485 nm). Initial rates were calculated from the progress curves. IC50 values were calculated from these rates using either a 4 or 5-parameter logistic curve fit.
`COCCN1C[C@@H](NC(=O)Nc2c3c(nn2-c2ccc(F)cc2)CCC3)[C@H](c2ccccc2)C1` (relative stereo) [Example 23, 1-(2-(4-fluorophenyl)-2,4,5,6-tetrahydrocyclopenta[c]pyrazol-3-yl)-3-(trans-1-(2-methoxyethyl)-4-phenylpyrrolidin-3-yl)urea] came in with an IC50 below 100 nM.

In turn, `COCCN1C[C@@H](NC(=O)Nc2cc(C3CCCC3)nn2-c2ccccc2)[C@H](c2ccccc2)C1` (relative stereo) [Example 24, 1-(3-cyclopentyl-1-phenyl-1H-pyrazol-5-yl)-3-(trans-1-(2-methoxyethyl)-4-phenylpyrrolidin-3-yl)urea] came in with an IC50 below 100 nM. As for `CCn1nc(-c2ccccc2)cc1NC(=O)N[C@@H]1CN(CCOC)C[C@H]1c1ccccc1` (relative stereo) [Example 25, 1-(1-ethyl-3-phenyl-1H-pyrazol-5-yl)-3-(trans-1-(2-methoxyethyl)-4-phenylpyrrolidin-3-yl)urea], the figure is 100 to 1000 nM; as for `COCCN1C[C@@H](NC(=O)Nc2c3c(nn2-c2ccccc2)CCCC3)[C@H](c2ccccc2)C1` (relative stereo) [Example 26, 1-(trans-1-(2-methoxyethyl)-4-phenylpyrrolidin-3-yl)-3-(2-phenyl-4,5,6,7-tetrahydro-2H-indazol-3-yl)urea], below 100 nM; as for `COCCN1C[C@@H](NC(=O)Nc2c3c(nn2C)CCC3)[C@H](c2ccccc2)C1` (relative stereo) [Example 27, 1-(trans-1-(2-methoxyethyl)-4-phenylpyrrolidin-3-yl)-3-(2-methyl-2,4,5,6-tetrahydrocyclopenta[c]pyrazol-3-yl)urea], 1000 to 10000 nM.

`COCCN1C[C@@H](NC(=O)Nc2c(-c3ccccc3)c(C)nn2C)[C@H](c2ccccc2)C1` (relative stereo) [Example 28, 1-(1,3-dimethyl-4-phenyl-1H-pyrazol-5-yl)-3-(trans-1-(2-methoxyethyl)-4-phenylpyrrolidin-3-yl)urea] displayed an IC50 of 100 to 1000 nM. As for `COCCN1C[C@@H](NC(=O)Nc2cc(C(C)(C)C)nn2-c2ccccc2C)[C@H](c2ccccc2)C1` (relative stereo) [Example 29, 1-(3-tert-butyl-1-o-tolyl-1H-pyrazol-5-yl)-3-(trans-1-(2-methoxyethyl)-4-phenylpyrrolidin-3-yl)urea], the figure is 1000 to 10000 nM; as for `COCCN1C[C@@H](NC(=O)Nc2cc(C(C)(C)C)nn2-c2cccc(C)c2)[C@H](c2ccccc2)C1` (relative stereo) [Example 30, 1-(3-tert-butyl-1-m-tolyl-1H-pyrazol-5-yl)-3-(trans-1-(2-methoxyethyl)-4-phenylpyrrolidin-3-yl)urea], below 100 nM; as for `COCCN1C[C@@H](NC(=O)Nc2c(-c3ccccc3)cnn2C)[C@H](c2ccccc2)C1` (relative stereo) [Example 31, 1-(trans-1-(2-methoxyethyl)-4-phenylpyrrolidin-3-yl)-3-(1-methyl-4-phenyl-1H-pyrazol-5-yl)urea], 100 to 1000 nM.

Take `COCCN1C[C@@H](NC(=O)Nc2c(C#N)c(C)nn2-c2ccccc2)[C@H](c2ccccc2)C1` (relative stereo) [Example 32, 1-(4-cyano-3-methyl-1-phenyl-1H-pyrazol-5-yl)-3-(trans-1-(2-methoxy-ethyl)-4-phenylpyrrolidin-3-yl)urea]: the IC50 was in the range of 100 to 1000 nM. As for `COCCN1C[C@@H](NC(=O)Nc2c3c(nn2-c2cnn(C)c2)CCC3)[C@H](c2ccccc2)C1` (relative stereo) [Example 33, 1-(trans-1-(2-methoxyethyl)-4-phenylpyrrolidin-3-yl)-3-(2-(1-methyl-1H-pyrazol-4-yl)-2,4,5,6-tetrahydrocyclo-penta[c]pyrazol-3-yl)urea], the figure is 100 to 1000 nM. As for `COCCN1C[C@@H](NC(=O)Nc2c3c(nn2-c2ccccn2)CCC3)[C@H](c2ccccc2)C1` (relative stereo) [Example 35, 1-(trans-1-(2-methoxyethyl)-4-phenylpyrrolidin-3-yl)-3-(2-(pyridin-2-yl)-2,4,5,6-tetrahydrocyclopenta[c]pyrazol-3-yl)urea], the figure is 1000 to 10000 nM. As for `COCCN1C[C@@H](NC(=O)Nc2c3c(nn2-c2ccccc2)C(C)(C)CCC3)[C@H](c2ccccc2)C1` (relative stereo) [Example 37, 1-(7,7-dimethyl-2-phenyl-4,5,6,7-tetrahydro-2H-indazol-3-yl)-3-(trans-1-(2-methoxyethyl)-4-phenylpyrrolidin-3-yl)urea], the figure is below 100 nM; as for `COCCN1C[C@@H](NC(=O)Nc2c3c(nn2-c2ccccc2)CCC3)[C@H](c2ccncc2)C1` (relative stereo) [Example 38, 1-(trans-1-(2-methoxyethyl)-4-(pyridin-4-yl)pyrrolidin-3-yl)-3-(2-phenyl-2,4,5,6-tetrahydrocyclopenta[c]pyrazol-3-yl)urea], below 100 nM. The molecule `COCCN1C[C@@H](NC(=O)Nc2c3c(nn2-c2ccccc2)CCC3)[C@H](c2cccc(F)c2)C1` (relative stereo) [Example 39, trans-1-(4-(3-fluorophenyl)-1-(2-methoxyethyl)pyrrolidin-3-yl)-3-(2-phenyl-2,4,5,6-tetrahydrocyclopenta[c]pyrazol-3-yl)urea] showed an IC50 below 100 nM.

As to `COCCN1C[C@@H](NC(=O)Nc2cc(C(C)C)nn2-c2ccccc2)[C@H](c2cccc(F)c2)C1` (relative stereo) [Example 40, trans-1-(-4-(3-fluorophenyl)-1-(2-methoxyethyl)pyrrolidin-3-yl)-3-(3-isopropyl-1-phenyl-1H-pyrazol-5-yl)urea], the IC50 was below 100 nM. As for `COCCN1C[C@@H](NC(=O)Nc2cc(C(C)C)nn2-c2ccccc2)[C@H](c2ccc(F)cc2)C1` (relative stereo) [Example 41, trans-1-(4-(4-fluorophenyl)-1-(2-methoxyethyl)pyrrolidin-3-yl)-3-(3-isopropyl-1-phenyl-1H-pyrazol-5-yl)urea], the figure is below 100 nM.

Regarding `COCCN1C[C@@H](NC(=O)Nc2cc(C(C)C)nn2-c2ccccc2)[C@H](c2cccc(Cl)c2)C1` (relative stereo) [Example 42, trans-1-(4-(3-chlorophenyl)-1-(2-methoxyethyl)pyrrolidin-3-yl)-3-(3-isopropyl-1-phenyl-1H-pyrazol-5-yl)urea], the IC50 is below 100 nM. As for `COCCN1C[C@@H](NC(=O)Nc2cc(C(C)C)nn2-c2ccccc2)[C@H](c2ccccc2F)C1` (relative stereo) [Example 43, trans-1-(4-(2-fluorophenyl)-1-(2-methoxyethyl)pyrrolidin-3-yl)-3-(3-isopropyl-1-phenyl-1H-pyrazol-5-yl)urea], the figure is 100 to 1000 nM; as for `COCCN1C[C@@H](NC(=O)Nc2cc(C(C)C)nn2-c2ccccc2)[C@H](c2cccs2)C1` (relative stereo) [Example 44, trans-1-(3-isopropyl-1-phenyl-1H-pyrazol-5-yl)-3-(1-(2-methoxyethyl)-4-(thiophen-2-yl)pyrrolidin-3-yl)urea], below 100 nM. As for `COCCN1C[C@@H](NC(=O)Nc2c3c(nn2-c2ccccc2)CCC3)[C@H](c2cnco2)C1` (relative stereo) [Example 46, 1-(trans-1-(2-methoxyethyl)-4-(oxazol-5-yl)pyrrolidin-3-yl)-3-(2-phenyl-2,4,5,6-tetrahydrocyclopenta[c]pyrazol-3-yl)urea], the figure is 1000 to 10000 nM; as for `COCCN1C[C@@H](NC(=O)Nc2c3c(nn2-c2ccccc2)CCC3)[C@H](c2ccno2)C1` (relative stereo) [Example 47, 1-(trans-4-(isoxazol-5-yl)-1-(2-methoxyethyl)pyrrolidin-3-yl)-3-(2-phenyl-2,4,5,6-tetrahydrocyclopenta[c]pyrazol-3-yl)urea], 100 to 1000 nM. As for `O=C(Nc1c2c(nn1-c1ccccc1)CCC2)N[C@@H]1CN(CCOC(F)(F)F)C[C@H]1c1ccccc1` (relative stereo) [Example 182, 1-(trans-4-phenyl-1-(2-(trifluoromethoxy)ethyl)pyrrolidin-3-yl)-3-(2-phenyl-2,4,5,6-tetrahydrocyclopenta[c]pyrazol-3-yl)urea], the figure is below 100 nM; as for `CSCCN1C[C@@H](NC(=O)Nc2c3c(nn2-c2ccccc2)CCC3)[C@H](c2ccccc2)C1` (relative stereo) [Example 183, 1-(trans-1-(2-(methylthio)ethyl)-4-phenylpyrrolidin-3-yl)-3-(2-phenyl-2,4,5,6-tetrahydrocyclopenta[c]pyrazol-3-yl)urea], 100 to 1000 nM; as for `CCN1C[C@@H](NC(=O)Nc2c3c(nn2-c2ccccc2)CCC3)[C@H](c2ccccc2)C1` (relative stereo) [Example 193, 1-((trans)-1-ethyl-4-phenylpyrrolidin-3-yl)-3-(2-phenyl-2,4,5,6-tetrahydrocyclopenta[c]pyrazol-3-yl)urea], 100 to 1000 nM. `O=C(Nc1c2c(nn1-c1ccccc1)CCC2)N[C@@H]1CN(CC(F)(F)F)C[C@H]1c1ccccc1` (relative stereo) [Example 194, 1-((trans)-4-phenyl-1-(2,2,2-trifluoroethyl)pyrrolidin-3-yl)-3-(2-phenyl-2,4,5,6-tetrahydrocyclopenta[c]pyrazol-3-yl)urea] registered an IC50 below 100 nM. As for `Cc1nn(-c2ccccc2)c(NC(=O)N[C@@H]2CN(CC(F)(F)F)C[C@H]2c2ccccc2)c1C` (relative stereo) [Example 195, 1-(3,4-dimethyl-1-phenyl-1H-pyrazol-5-yl)-3-((trans)-4-phenyl-1-(2,2,2-trifluoroethyl)pyrrolidin-3-yl)urea], the figure is below 100 nM.
